Data reported in US20070010671A1, “Novel quinazoline derivatives and methods of treatment related to the use thereof” (priority 2003, published 2007).

target: MCH receptor (Homo sapiens, UniProt Q99705); assay: High throughput functional screening FLIPR/FDSS6000: inhibition of MCH-evoked intracellular Ca2+ changes; type: cell-based; details: class by percent of control at 10^-7 M or IC50
How it was run: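 Fluo4 fluorescence (Ex 488 nm, Em 530 nm) tracked MCH-evoked [Ca2+]i transients over 290 s by FLIPR or FDSS. Cells carried a constitutively active, non-endogenous receptor version. Compounds were added 3 min before a 50 nM MCH challenge.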

SMILES | class
COc1ccc(OC)c(NC(=S)N[C@H]2CC[C@@H](Nc3nc(N(C)C)c4ccccc4n3)CC2)c1 [compound 212] | 2 (Class 2: The value of percent of control at 10^−7 M was from 40% to 60% or the value of IC50 was from 50 nM to 200 nM.)
CCN(CC)c1ccc(NC(=S)N[C@H]2CC[C@@H](Nc3nc(N(C)C)c4ccccc4n3)CC2)cc1 [compound 393] | 3 (Class 3: The value of percent of control at 10^−7 M was more than 60% or the value of IC50 was more than 200 nM.)
CN(C)c1nc(N[C@H]2CC[C@@H](CNC(=S)NC3CCCCCC3)CC2)nc2ccccc12 [compound 748] | 3 (Class 3: The value of percent of control at 10^−7 M was more than 60% or the value of IC50 was more than 200 nM.)
CN(C)c1nc(N[C@H]2CC[C@@H](NC(=S)NCCCN3CCOCC3)CC2)nc2ccccc12 [compound 392] | 3 (Class 3: The value of percent of control at 10^−7 M was more than 60% or the value of IC50 was more than 200 nM.)
CN(C)c1nc(N[C@H]2CC[C@@H](CNC(=S)Nc3cc(F)ccc3Br)CC2)nc2ccccc12 [compound 785] | 3 (Class 3: The value of percent of control at 10^−7 M was more than 60% or the value of IC50 was more than 200 nM.)
Cc1noc(C)c1NC(=S)N[C@H]1CC[C@@H](Nc2nc(N(C)C)c3ccccc3n2)CC1 [compound 400] | 3 (Class 3: The value of percent of control at 10^−7 M was more than 60% or the value of IC50 was more than 200 nM.)
CN(C)c1nc(N[C@H]2CC[C@@H](CNC(=O)Nc3ccc(SC(F)(F)F)cc3)CC2)nc2ccccc12 [compound 537] | 3 (Class 3: The value of percent of control at 10^−7 M was more than 60% or the value of IC50 was more than 200 nM.)
CN(C)c1nc(N[C@H]2CC[C@@H](CNC(=S)NC3CCCCCCCCCCC3)CC2)nc2ccccc12 [compound 709, N-cyclododecyl-N′-[(cis-4-{[4-(dimethylamino)quinazolin-2-yl]amino}cyclohexyl)methyl]thiourea] | 2 (Class 2: The value of percent of control at 10^−7 M was from 40% to 60% or the value of IC50 was from 50 nM to 200 nM.)
CN(C)c1nc(N[C@H]2CC[C@@H](CNC(=S)Nc3ccc(OCc4ccccc4)cc3)CC2)nc2ccccc12 [compound 690] | 3 (Class 3: The value of percent of control at 10^−7 M was more than 60% or the value of IC50 was more than 200 nM.)
COc1ccc(OC)c(CCNC(=S)N[C@H]2CC[C@@H](Nc3nc(N(C)C)c4ccccc4n3)CC2)c1 [compound 296, N-[2-(2,5-dimethoxyphenyl)ethyl]-N′-(cis-4-{[4-(dimethylamino)quinazolin-2-yl]amino}cyclohexyl)thiourea] | 2 (Class 2: The value of percent of control at 10^−7 M was from 40% to 60% or the value of IC50 was from 50 nM to 200 nM.)
CN(C)c1nc(N[C@H]2CC[C@@H](NC(=S)Nc3cccc(SC(F)(F)F)c3)CC2)nc2ccccc12 [compound 222] | 3 (Class 3: The value of percent of control at 10^−7 M was more than 60% or the value of IC50 was more than 200 nM.)
CN(C)c1nc(N[C@H]2CC[C@@H](NC(=S)Nc3ccc(OCc4ccccc4)cc3)CC2)nc2ccccc12 [compound 265] | 3 (Class 3: The value of percent of control at 10^−7 M was more than 60% or the value of IC50 was more than 200 nM.)
Cc1c(Cl)cccc1NC(=S)N[C@H]1CC[C@@H](Nc2nc(N(C)C)c3ccccc3n2)CC1 [compound 371] | 1 (Class 1: The value of percent of control at 10^−7 M was less than 40% or the value of IC50 was less than 50 nM.)
CN(C)c1nc(N[C@H]2CC[C@@H](NC(=O)Nc3ccc4c(c3)C(F)(F)OC(F)(F)O4)CC2)nc2ccccc12 [compound 335] | 3 (Class 3: The value of percent of control at 10^−7 M was more than 60% or the value of IC50 was more than 200 nM.)
Cc1cc(C)cc(NC(=S)NC[C@H]2CC[C@@H](Nc3nc(N(C)C)c4ccccc4n3)CC2)c1 [compound 684] | 3 (Class 3: The value of percent of control at 10^−7 M was more than 60% or the value of IC50 was more than 200 nM.)
CSc1ccccc1NC(=O)NC[C@H]1CC[C@@H](Nc2nc(N(C)C)c3ccccc3n2)CC1 [compound 471, N-[(cis-4-{[4-(dimethylamino)quinazolin-2-yl]amino}cyclohexyl)methyl]-N′-[2-(methylthio)phenyl]urea] | 2 (Class 2: The value of percent of control at 10^−7 M was from 40% to 60% or the value of IC50 was from 50 nM to 200 nM.)
CN(C)c1nc(N[C@H]2CC[C@@H](CNC(=O)Nc3cccs3)CC2)nc2ccccc12 [compound 761] | 3 (Class 3: The value of percent of control at 10^−7 M was more than 60% or the value of IC50 was more than 200 nM.)
CN(C)c1nc(N[C@H]2CC[C@@H](CNC(=O)Nc3ccccc3Br)CC2)nc2ccccc12 [compound 411, N-(2-bromophenyl)-N′-[(cis-4-{[4-(dimethylamino)quinazolin-2-yl]amino}cyclohexyl)methyl]urea] | 2 (Class 2: The value of percent of control at 10^−7 M was from 40% to 60% or the value of IC50 was from 50 nM to 200 nM.)
CCC[C@H]1CC[C@H](c2ccc(NC(=S)NC[C@H]3CC[C@@H](Nc4nc(N(C)C)c5ccccc5n4)CC3)cc2)CC1 [compound 601] | 3 (Class 3: The value of percent of control at 10^−7 M was more than 60% or the value of IC50 was more than 200 nM.)

same assay, conditions: class by percent of control at 10^-7 M or by IC50; read-out: class

IC50 [nM] | SMILES
> 200 | CN(C)c1nc(N[C@H]2CC[C@@H](NC(=S)Nc3c(Cl)cccc3Cl)CC2)nc2ccccc12 [compound 171]
> 200 | CCOC(=O)c1c(NC(=S)NC[C@H]2CC[C@@H](Nc3nc(N(C)C)c4ccccc4n3)CC2)sc2c1CCCC2 [compound 801, ethyl 2-[({[(cis-4-{[4-(dimethylamino)quinazolin-2-yl]amino}cyclohexyl)methyl]amino}carbonothioyl)amino]-4.5.6.7-tetrahydro-1-benzothiophene-3-carboxylate]
50 to 200 | CN(C)c1nc(N[C@H]2CC[C@@H](NC(=O)NCc3ccccc3)CC2)nc2ccccc12 [compound 9, N-benzyl-N′-(cis-4-{[4-(dimethylamino)quinazolin-2-yl]amino}cyclohexyl)urea]
< 50 | COc1cc(OC)c(NC(=O)N[C@H]2CC[C@@H](Nc3nc(N(C)C)c4ccccc4n3)CC2)cc1Cl [compound 834, N-(5-chloro-2,4-dimethoxyphenyl)-N′-(cis-4-{[4-(dimethylamino)quinazolin-2-yl]amino}cyclohexyl)urea]
> 200 | CN(C)c1nc(N[C@H]2CC[C@@H](NC(=O)Nc3cccc(SC(F)(F)F)c3)CC2)nc2ccccc12 [compound 119]
< 50 | CN(C)c1nc(N[C@H]2CC[C@@H](NC(=O)Nc3ccc(F)cc3)CC2)nc2ccccc12 [compound 36, N-(cis-4-{[4-(dimethylamino)quinazolin-2-yl]amino}cyclohexyl)-N′-(4-fluorophenyl)urea]

SMILES | IC50 [nM]
CN(C)c1nc(N[C@H]2CC[C@@H](CNC(=O)Oc3ccc(Br)cc3)CC2)nc2ccccc12 [compound 870] | > 200

same assay, conditions: class by percent of control at 10^−7 M or by IC50; read-out: class

IC50 [nM] | SMILES
< 50 | CN(C)c1nc(N[C@H]2CC[C@@H](NC(=O)c3cccc(C(F)(F)F)c3)CC2)nc2cc(F)c(F)cc12 [Example 1210, N-(cis-4-{[4-(dimethylamino)-6,7-difluoroquinazolin-2-yl]amino}cyclohexyl)-3-(trifluoromethyl)benzamide]
> 200 | CN(C)c1nc(N[C@H]2CC[C@@H](CNC(=O)C(O)c3c(F)cccc3F)CC2)nc2ccccc12 (relative stereo) [Example 1092, 2-(2,6-difluorophenyl)-N-[(cis-4-{[4-(dimethylamino)quinazolin-2-yl]amino}cyclohexyl)methyl]-2-hydroxyacetamide]
< 50 | CCC(=O)Nc1cccc(C(=O)N[C@H]2CC[C@@H](Nc3nc(N(C)C)c4ccccc4n3)CC2)c1 [Example 1200, N-(cis-4-{[4-(dimethylamino)quinazolin-2-yl]amino}cyclohexyl)-3-(propionylamino)benzamide]
> 200 | CN(C)c1nc(N[C@H]2CC[C@@H](NC(=O)c3ccc(OCc4ccccc4)cc3)CC2)nc2ccccc12 [Example 1084, 4-(benzyloxy)-N-(cis-4-{[4-(dimethylamino)quinazolin-2-yl]amino}cyclohexyl)benzamide]
50 to 200 | CN(C)c1nc(N[C@H]2CC[C@@H](C(=O)NCc3ccccc3)CC2)nc2cc(F)c(F)cc12 [Example 992, cis-N-benzyl-4-{[4-(dimethylamino)-6,7-difluoroquinazolin-2-yl]amino}cyclohexanecarboxamide]
> 200 | CN(C)c1nc(N[C@H]2CC[C@@H](C(=O)NCc3ccc(F)cc3F)CC2)nc2cc(F)c(F)cc12 [Example 997, cis-N-(2,4-difluorobenzyl)-4-{[4-(dimethylamino)-6,7-difluoroquinazolin-2-yl]amino}cyclohexanecarboxamide]
50 to 200 | CN(C)c1nc(N[C@H]2CC[C@@H](NC(=O)c3cccc(NC(=O)C(C)(C)C)c3)CC2)nc2ccccc12 [Example 1202, N-(cis-4-{(4-(dimethylamino)quinazolin-2-yl]amino}cyclohexyl)-3-[(2,2-dimethylpropanoyl)amino]benzamide]
50 to 200 | CC(C)CC(=O)Nc1cccc(C(=O)N[C@H]2CC[C@@H](Nc3nc(N(C)C)c4ccccc4n3)CC2)c1 [Example 1201, N-(cis-4-{[4-(dimethylamino)quinazolin-2-yl]amino}cyclohexyl)-3-[(3-methylbutanoyl)amino]benzamide]
< 50 | CN(C)c1nc(N[C@H]2CC[C@@H](C(=O)NCc3cccc(OC(F)F)c3)CC2)nc2ccccc12 [Example 1185, cis-N-[3-(difluoromethoxy)benzyl]-4-{[4-(dimethylamino)quinazolin-2-yl]amino}cyclohexanecarboxamide]
50 to 200 | CN(C)c1nc(N[C@H]2CC[C@@H](NC(=O)c3ccnc(Oc4cccc(Cl)c4)c3)CC2)nc2ccccc12 [Example 1073, 2-(3-chlorophenoxy)-N-(cis-4-{[4-(dimethylamino)quinazolin-2-yl]amino}cyclohexyl)isonicotinamide]
